# Measured values published in patent US20250352521A1, “FIXED DOSAGE ANTIBIOTIC COMPOSITIONS” (Entasis Therapeutics Limited, priority 2021, published 2025).
# Assays:
# [1] = Dry powder filling / machinability trials: powder adhesion to filling equipment; assay type: physicochemical; conditions: machine filling of glass vials
# Text: Initial attempts to formulate a fixed dosage comprised dry powder filling both DUR sodium salt and SUL sodium salt in glass vials. […] The drawback leads to unreliable and inconsistent product dosing. […] See e.g., the Exemplification section below.
# Attempts to develop a commercially feasible fixed-dose combination of durlobactam and sulbactam by dry powder filling both DUR sodium salt and SUL sodium salt (as a 1:1 w/w mixture of each salt form) in glass vials were not successful because of the highly hygroscopic, poor flow properties of DUR sodium salt. […] See e.g., FIG. 1, showing the DUR sodium salt powder residue from the centralized suction and on the feeding chute observed during machinability trials. See also FIG. 2 which depicts the appearance of the DUR sodium salt powder filled product.
# [2] = Bulk and tapped density analyses according to USP, with calculated compressibility index and Hausner ratio; assay type: physicochemical
# Protocol: Bulk and tapped density analyses of DUR sodium salt were performed according to USP and the compressibility index (CI) and Hausner ratio was calculated. Typically, a material is considered to have poor flowability if the Hausner ratio is greater than 1.25 and/or if the CI is greater than 25. See e.g., Leroy A. Sherrington, Amal Sherrington, in Analytical Profiles of Drug Substances and Excipients, 1998. […] These experimental values are consistent with the observed powder adhesion.
# It has now been found, however, that co-lyophilizing durlobactam sodium salt and sulbactam sodium salt improved flow properties compared to lyophilized durlobactam sodium alone. Initial experiments involved dissolving a 1:1 w/w mixture of durlobactam sodium salt and sulbactam sodium salt in water-for-injection and optimizing the bulk lyophilization conditions (per scale).
# [3] = tested on: A. baumannii complex (ABC) isolates; conditions: cited from earlier work
# [4] = tested on: class A, C, and D β-lactamases; conditions: cited from earlier work
# [5] = tested on: Enterobacteriaceae; conditions: in vitro; cited from earlier work
# [6] = calculated from bulk and tapped density
SMILES,Powder adhesion to the parts of the filling equipment [1],Bulk density [2],Flowability as indicated by Hausner ratio and CI [2],Tapped density [2],"CI (compressibility index) [2, 6]","Hausner ratio [2, 6]","Hausner ratio ([2]; calculated from bulk and tapped density, listed as DUR sodium salt)",Restoration of in vitro activity of sulbactam ([3]; in combination with sulbactam),"Intrinsic activity ([3]; in vitro, durlobactam alone)",Inhibition of β-lactamases [4],Intrinsic antibacterial activity [5]
"CC1=C[C@@H]2CN(C(=O)N2OS(=O)(=O)[O-])[C@@H]1C(N)=O.[Na+] [DUR-Na salt, Durlobactam]",significant powder adhesion,0.38 g/mL,extremely poor flowing material,0.61 g/mL,38%,1.6,> 1.6,–,–,–,–
CC1=C[C@@H]2CN(C(=O)N2OS(=O)(=O)O)[C@@H]1C(N)=O [Durlobactam],–,–,–,–,–,–,–,restores the in vitro activity of sulbactam,no significant intrinsic activity,potent inhibition,intrinsic antibacterial activity against some Enterobacteriaceae
